Results reported in patent publication US10670605B2, “Cysteine reactive probes and uses thereof” (The Scripps Research Institute, priority 2015, dated 2020).

How the values were obtained:
Assay in all cases: Competitive isoTOP-ABPP in situ (fragment-treated cells)
Assay type in all cases: cell-based
[1] = biological target: T1, cysteines in MDA-MB-231 and Ramos cells (Homo sapiens, UniProt Q9Y3A3)
T1 sequence (Q9Y3A3 1-225): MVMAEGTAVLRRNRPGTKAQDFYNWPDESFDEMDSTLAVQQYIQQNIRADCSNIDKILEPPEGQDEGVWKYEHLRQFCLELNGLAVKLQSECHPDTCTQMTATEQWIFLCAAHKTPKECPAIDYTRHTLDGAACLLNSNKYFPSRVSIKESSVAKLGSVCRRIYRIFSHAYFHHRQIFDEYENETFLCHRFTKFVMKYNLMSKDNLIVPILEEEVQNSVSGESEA

[2] = biological target: cysteines in MDA-MB-231 and Ramos cells (Homo sapiens, UniProt P15121)
[3] = biological target: T2, cysteines in MDA-MB-231 and Ramos cells (Homo sapiens, UniProt Q99439)
T2 sequence (Q99439 1-309): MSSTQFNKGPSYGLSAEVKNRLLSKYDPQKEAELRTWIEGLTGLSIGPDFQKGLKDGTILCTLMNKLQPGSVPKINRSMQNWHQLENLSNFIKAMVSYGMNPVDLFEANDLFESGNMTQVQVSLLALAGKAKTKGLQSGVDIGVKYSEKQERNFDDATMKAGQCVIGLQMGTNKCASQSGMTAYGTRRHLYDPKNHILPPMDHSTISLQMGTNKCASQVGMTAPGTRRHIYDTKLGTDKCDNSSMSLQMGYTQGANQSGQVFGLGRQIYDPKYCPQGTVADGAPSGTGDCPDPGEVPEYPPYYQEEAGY

[4] = biological target: T3, cysteines in MDA-MB-231 and Ramos cells (Homo sapiens, UniProt Q9HCC0)
T3 sequence (Q9HCC0 23-563): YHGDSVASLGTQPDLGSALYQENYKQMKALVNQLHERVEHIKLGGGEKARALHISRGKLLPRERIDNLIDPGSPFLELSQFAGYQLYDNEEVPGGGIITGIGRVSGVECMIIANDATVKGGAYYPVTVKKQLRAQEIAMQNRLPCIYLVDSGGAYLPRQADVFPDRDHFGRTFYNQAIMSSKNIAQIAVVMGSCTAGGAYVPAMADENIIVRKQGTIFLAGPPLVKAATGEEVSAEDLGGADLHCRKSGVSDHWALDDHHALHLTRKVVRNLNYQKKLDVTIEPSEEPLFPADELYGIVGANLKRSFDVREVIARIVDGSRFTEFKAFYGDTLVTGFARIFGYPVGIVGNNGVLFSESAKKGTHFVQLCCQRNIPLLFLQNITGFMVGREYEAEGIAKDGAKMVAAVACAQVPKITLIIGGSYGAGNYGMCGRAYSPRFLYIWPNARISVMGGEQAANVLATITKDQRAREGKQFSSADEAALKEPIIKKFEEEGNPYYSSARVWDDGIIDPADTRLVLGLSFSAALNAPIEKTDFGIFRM

[5] = biological target: T4, cysteines in MDA-MB-231 and Ramos cells (Homo sapiens, UniProt P13667)
T4 sequence (P13667 21-645): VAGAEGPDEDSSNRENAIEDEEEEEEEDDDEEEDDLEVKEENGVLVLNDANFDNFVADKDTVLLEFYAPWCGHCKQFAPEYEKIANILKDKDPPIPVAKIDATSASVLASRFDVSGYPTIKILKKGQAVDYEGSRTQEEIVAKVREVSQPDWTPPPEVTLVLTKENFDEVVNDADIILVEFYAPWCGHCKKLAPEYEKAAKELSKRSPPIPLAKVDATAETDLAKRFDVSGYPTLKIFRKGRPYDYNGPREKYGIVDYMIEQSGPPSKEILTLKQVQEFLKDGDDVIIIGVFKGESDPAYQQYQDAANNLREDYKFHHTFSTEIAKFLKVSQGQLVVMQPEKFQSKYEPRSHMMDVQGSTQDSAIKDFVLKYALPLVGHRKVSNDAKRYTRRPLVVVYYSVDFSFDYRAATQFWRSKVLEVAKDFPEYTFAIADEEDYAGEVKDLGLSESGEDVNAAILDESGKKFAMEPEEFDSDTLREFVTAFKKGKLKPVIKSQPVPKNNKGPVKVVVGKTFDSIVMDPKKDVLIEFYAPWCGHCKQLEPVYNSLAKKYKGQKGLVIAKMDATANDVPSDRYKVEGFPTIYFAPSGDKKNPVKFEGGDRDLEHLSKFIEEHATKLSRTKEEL

[6] = biological target: T5, cysteines in MDA-MB-231 and Ramos cells (Homo sapiens, UniProt Q9BVC5)
T5 sequence (Q9BVC5 1-232): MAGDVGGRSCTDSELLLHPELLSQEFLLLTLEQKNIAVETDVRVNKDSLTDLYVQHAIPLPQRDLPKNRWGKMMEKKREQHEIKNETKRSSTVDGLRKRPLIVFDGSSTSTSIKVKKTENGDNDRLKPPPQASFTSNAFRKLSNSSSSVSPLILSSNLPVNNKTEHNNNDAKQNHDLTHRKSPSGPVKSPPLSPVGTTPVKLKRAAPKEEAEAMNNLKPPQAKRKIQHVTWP

[7] = biological target: T6, cysteines in MDA-MB-231 and Ramos cells (Homo sapiens, UniProt P30101)
T6 sequence (P30101 25-505): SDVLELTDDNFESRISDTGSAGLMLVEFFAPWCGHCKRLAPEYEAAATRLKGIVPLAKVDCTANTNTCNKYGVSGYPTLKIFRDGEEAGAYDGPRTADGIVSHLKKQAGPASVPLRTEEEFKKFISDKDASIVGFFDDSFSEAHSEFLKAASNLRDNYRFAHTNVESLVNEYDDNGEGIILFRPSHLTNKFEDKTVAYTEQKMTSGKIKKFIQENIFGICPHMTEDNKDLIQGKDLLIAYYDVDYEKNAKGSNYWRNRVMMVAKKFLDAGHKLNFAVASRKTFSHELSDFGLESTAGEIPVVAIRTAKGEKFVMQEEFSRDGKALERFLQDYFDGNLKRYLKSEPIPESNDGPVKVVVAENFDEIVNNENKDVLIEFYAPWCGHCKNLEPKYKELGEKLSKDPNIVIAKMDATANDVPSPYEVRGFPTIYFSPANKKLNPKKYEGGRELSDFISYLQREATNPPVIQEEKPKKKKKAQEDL

SMILES | isoTOP-ABPP ratio Q9Y3A3_C134 ([1]; 200 μM, insitu, 231) | isoTOP-ABPP ratio P15121_C299 ([2]; 200 μM, insitu, 231) | isoTOP-ABPP ratio Q99439_C164 ([3]; 200 μM, insitu, 231) | isoTOP-ABPP ratio P13667_C206 ([5]; 200 μM, insitu, 231) | isoTOP-ABPP ratio P13667_C555 ([5]; 200 μM, insitu, 231) | isoTOP-ABPP ratio Q9BVC5_C10 ([6]; 200 μM, insitu, 231) | isoTOP-ABPP ratio P30101_C57 ([7]; 200 μM, insitu, 231) | isoTOP-ABPP ratio P30101_C406 ([7]; 200 μM, insitu, 231) | isoTOP-ABPP ratio Q9HCC0_C216 ([4]; 200 μM, insitu, 231) | other results
Cn1cc(S(=O)(=O)N2CCOCC2)cc1C(=O)NC(=O)CCl [compound 11] |  |  |  |  |  |  |  |  |  | isoTOP-ABPP ratio Q9Y3A3_C134 ([1]; 100 μM in situ 231): 1.8; isoTOP-ABPP ratio P15121_C299 ([2]; 100 μM in situ 231): 0.7; isoTOP-ABPP ratio Q99439_C164 ([3]; 100 μM in situ 231): 0.6; isoTOP-ABPP ratio Q9HCC0_C216 ([4]; 100 μM in situ 231): 1.9; isoTOP-ABPP ratio P13667_C206 ([5]; 100 μM in situ 231): 4.1; isoTOP-ABPP ratio Q9BVC5_C10 ([6]; 100 μM in situ 231): 1.1; isoTOP-ABPP ratio P30101_C57 ([7]; 100 μM in situ 231): 2.2
O=C(CCl)NC(=O)NC12CC3CC(CC(C3)C1)C2 [compound 12] | 1.4 | 0.7 | 0.9 | 16.6 | 20.0 | 2.9 | 20.0 | 20.0 | 20.0 | 
O=C(CCl)NCCc1c[nH]c2ccccc12 [compound 13] |  |  | 0.9 | 1.1 |  | 1.6 |  |  |  | isoTOP-ABPP ratio Q9Y3A3_C134 ([1]; 200 μM, insitu, ramos): 1.9; isoTOP-ABPP ratio P15121_C299 ([2]; 200 μM, insitu, ramos): 0.8; isoTOP-ABPP ratio Q99439_C164 ([3]; 200 μM, insitu, ramos): 1.3; isoTOP-ABPP ratio Q9HCC0_C216 ([4]; 200 μM, insitu, ramos): 1.8; isoTOP-ABPP ratio P13667_C555 ([5]; 200 μM, insitu, ramos): 2.0; isoTOP-ABPP ratio P30101_C57 ([7]; 200 μM, insitu, ramos): 1.6; isoTOP-ABPP ratio P30101_C406 ([7]; 200 μM, insitu, ramos): 2.0

The next lines start with results.

isoTOP-ABPP ratio Q9Y3A3_C134 ([1]; 200 μM, insitu, 231) | isoTOP-ABPP ratio P15121_C299 ([2]; 200 μM, insitu, 231) | isoTOP-ABPP ratio Q99439_C164 ([3]; 200 μM, insitu, 231) | isoTOP-ABPP ratio P13667_C206 ([5]; 200 μM, insitu, 231) | isoTOP-ABPP ratio P13667_C555 ([5]; 200 μM, insitu, 231) | isoTOP-ABPP ratio Q9BVC5_C10 ([6]; 200 μM, insitu, 231) | isoTOP-ABPP ratio P30101_C57 ([7]; 200 μM, insitu, 231) | isoTOP-ABPP ratio P30101_C406 ([7]; 200 μM, insitu, 231) | SMILES | isoTOP-ABPP ratio Q9HCC0_C216 ([4]; 200 μM, insitu, 231) | other results
0.9 | 0.9 | 0.4 | 1.0 | 1.0 | 1.0 | 1.3 | 1.0 | Cc1ccc(C=C(C#N)C(=O)NCCN2CCOCC2)cc1 [compound 41] | 1.0 | 
2.3 | 1.0 | 1.8 | 1.9 | 2.6 | 3.4 | 2.6 | 2.6 | CC1CCc2ccccc2N1C(=O)CCl (centres unmarked) [compound 45] | 7.0 | 
